Data published in EP0908457B1, “3-(1,2-benzisothiazol- and isoxazol-5-Y1)-2,4(1H,3H)-pyrimidinedione or thione and 3-(1,2-benzisothiazol- and isoxazol-5-y1)-4(3H)-pyrimidinone or thione herbicidal agents” (BASF AKTIENGESELLSCHAFT, priority 1997, dated 1999).

Key:
[1] = tested on: Monochoria vaginalis, Presl.; assay: Preemergence weed control under flooded paddy conditions, MOOVA (Monochoria); type: in vivo; details: preemergence weeds, flooded paddy, herbicidal effect rating 0-9, three to four weeks after treatment
[2] = tested on: Oryza sativa, (L.) Tebonnet; assay: Rice tolerance to post-transplant applications under flooded paddy conditions (Example 187), ORYSAT (Rice, Tebonnet); details: herbicidal effect rating 0-9, three to four weeks after treatment
[3] = tested on: Echinochloa oryzoides (Ard.) Fritsch.; assay: Preemergence weed control under flooded paddy conditions, ECHORC (Watergrass (Calif.)); type: in vivo; details: preemergence weeds, flooded paddy, herbicidal effect rating 0-9, three to four weeks after treatment
Sagittaria pygmaea, L. = assay: Preemergence weed control under flooded paddy conditions, SAGPY (Arrowhead (Pygmaea)); type: in vivo; details: preemergence weeds, flooded paddy, herbicidal effect rating 0-9, three to four weeks after treatment
Cyperus iria = assay: Preemergence weed control under flooded paddy conditions, CYPIR (Rice Flatsedge); type: in vivo; details: preemergence weeds, flooded paddy, herbicidal effect rating 0-9, three to four weeks after treatment
[4] = tested on: Cyperus serotinus, Rottb.; assay: Preemergence weed control under flooded paddy conditions, CYPSE (Flatsedge); type: in vivo; details: preemergence weeds, herbicidal effect rating 0-9, three to four weeks after treatment

Row | Compound | MOOVA ([1]; 0.0320 kg/ha) | MOOVA ([1]; 0.0620 kg/ha) | MOOVA ([1]; 0.1250 kg/ha) | MOOVA ([1]; 0.2500 kg/ha) | ORYSAT ([2]; 0.0320 kg/ha) | ORYSAT ([2]; 0.0620 kg/ha) | ORYSAT ([2]; 0.1250 kg/ha) | ORYSAT ([2]; 0.2500 kg/ha) | ECHORC ([3]; 0.0320 kg/ha) | ECHORC ([3]; 0.0620 kg/ha) | ECHORC ([3]; 0.1250 kg/ha) | ECHORC ([3]; 0.2500 kg/ha) | SAGPY (Sagittaria pygmaea, L.; 0.0320 kg/ha) | SAGPY (Sagittaria pygmaea, L.; 0.0620 kg/ha) | SAGPY (Sagittaria pygmaea, L.; 0.1250 kg/ha) | SAGPY (Sagittaria pygmaea, L.; 0.2500 kg/ha) | CYPIR (Cyperus iria; 0.0320 kg/ha) | CYPIR (Cyperus iria; 0.0620 kg/ha) | CYPIR (Cyperus iria; 0.1250 kg/ha) | CYPIR (Cyperus iria; 0.2500 kg/ha) | further results
1 | C#CCOC(=O)COc1cc2c(cc1-c1nsc3ccc(-n4c(=O)cc(C(F)(F)F)n(C)c4=O)cc13)CCC2 [Example 436, Acetic acid, {{6-{5-[3,6-dihydro-3-methyl-2,6-dioxo-4-(trifluoromethyl)-1(2H)-pyrimidinyl]-1,2-benzisothiazol-3-yl}-5-indanyl}oxy}-, 2-propynyl ester] | 9.0 | 9.0 | 9.0 | 9.0 | 3.0 | 5.0 | 7.0 | 6.0 | 6.0 | 9.0 | 9.0 | 9.0 | 0.0 | 0.0 | 2.0 | 3.0 | 0.0 | 2.0 | 7.0 | 7.0 | CYPSE ([4]; 0.0320 kg/ha): 4.0; CYPSE ([4]; 0.0620 kg/ha): 6.0; CYPSE ([4]; 0.2500 kg/ha): 6.0
2 | Cc1ccc(OCC(=O)N(C)S(C)(=O)=O)c(-c2nsc3ccc(-n4c(=O)cc(C(F)(F)F)n(C)c4=O)cc23)c1 [Example 437, Acetamide, 2-{{2-{5-[3,6-dihydro-3-methyl-2,6-dioxo-4-(trifluoromethyl)-1(2H)-pyrimidinyl]-1,2-benzisothiazol-3-yl}-p-tolyl}oxy}-N-methyl-N-(methylsulfonyl)-] | 9.0 | 9.0 | 9.0 | 9.0 | 4.0 | 5.0 | 6.0 | 7.0 | 5.0 | 7.0 | 7.0 | 8.0 | 0.0 | 3.0 | 4.0 | 7.0 | 0.0 | 0.0 | 4.0 | 6.0 | CYPSE ([4]; 0.0320 kg/ha): 0.0; CYPSE ([4]; 0.0620 kg/ha): 2.0; CYPSE ([4]; 0.1250 kg/ha): 3.0; CYPSE ([4]; 0.2500 kg/ha): 7.0
3 | CN(C(=O)COc1ccccc1-c1nsc2ccc(-n3c(=O)cc(C(F)(F)F)n(C)c3=O)cc12)S(C)(=O)=O [Example 438, Acetamide, 2-{o-{5-[3,6-dihydro-3-methyl-2,6-dioxo-4-(trifluoromethyl)-1(2H)-pyrimidinyl]-1,2-benzisothiazol-3-yl}phenoxy}-N-methyl-N-(methylsulfonyl)-] | 8.0 | 8.5 | 9.0 | 9.0 | 4.0 | 5.0 | 7.0 | 8.0 | 7.0 | 8.0 | 9.0 | 9.0 | 2.0 | 3.5 | 8.5 | 9.0 | 4.5 | 6.5 | 8.5 | 9.0 | CYPSE ([4]; 0.0320 kg/ha): 4.5; CYPSE ([4]; 0.0620 kg/ha): 9.0; CYPSE ([4]; 0.1250 kg/ha): 7.0; CYPSE ([4]; 0.2500 kg/ha): 9.0
4 | Cn1c(C(F)(F)F)cc(=O)n(-c2ccc3snc(C(=O)Nc4nc(C(F)(F)F)c(Cl)s4)c3c2)c1=O [Example 439, 1,2-Benzisothiazole-3-carboxamide, N-[5-chloro-4-(trifluoromethyl)thiazol-2-yl]-5-[3,6-dihydro-3-methyl-2,6-dioxo-4-(trifluoromethyl)-1(2H)-pyrimidinyl]-] | 5.0 | 6.0 | 7.0 | 7.0 | 0.0 | 0.0 | 0.0 | 0.0 | 2.0 | 3.0 | 6.0 | 6.0 | 0.0 | 0.0 | 0.0 | 3.0 | 1.0 | 3.0 | 4.0 | 5.0 | CYPSE ([4]; 0.0320 kg/ha): 0.0; CYPSE ([4]; 0.0620 kg/ha): 0.0; CYPSE ([4]; 0.1250 kg/ha): 0.0; CYPSE ([4]; 0.2500 kg/ha): 0.0
5 | CCOCN(C(=O)c1nsc2ccc(-n3c(=O)cc(C(F)(F)F)n(C)c3=O)cc12)S(=O)(=O)Cc1ccccc1 [Example 440, 1,2-Benzisothiazole-3-carboxamide, N-(benzylsulfonyl)-5-[3,6-dihydro-3-methyl-2,6-dioxo-4-(trifluoromethyl)-1(2H)-pyrimidinyl]-N-(ethoxymethyl)-] | 7.0 | 9.0 | 9.0 | 9.0 | 3.0 | 4.0 | 4.0 | 4.0 | 5.0 | 7.0 | 9.0 | 9.0 | 4.0 | 6.0 | 7.0 | 9.0 | 5.0 | 9.0 | 9.0 | 9.0 | CYPSE ([4]; 0.0320 kg/ha): 6.0; CYPSE ([4]; 0.0620 kg/ha): 9.0; CYPSE ([4]; 0.1250 kg/ha): 9.0; CYPSE ([4]; 0.2500 kg/ha): 9.0
6 | COC(=O)CN(C(=O)c1nsc2ccc(-n3c(=O)cc(C(F)(F)F)n(C)c3=O)cc12)S(=O)(=O)Cc1ccccc1 [Example 441, Glycine, N-(benzylsulfonyl)-N-{{5-[3,6-dihydro-3-methyl-2,6-dioxo-4-(trifluoromethyl)-1(2H)-pyrimidinyl]-1,2-benzisothiazol-3-yl}carbonyl}-, methyl ester] | 9.0 | 9.0 | 9.0 | 9.0 | 0.0 | 0.0 | 2.0 | 3.0 | 0.0 | 0.0 | 0.0 | 3.0 | 0.0 | 2.0 | 3.0 | 6.0 | 4.0 | 6.0 | 9.0 | 9.0 | CYPSE ([4]; 0.0620 kg/ha): 0.0; CYPSE ([4]; 0.1250 kg/ha): 4.0; CYPSE ([4]; 0.2500 kg/ha): 7.0
7 | CCC(C#N)c1nsc2ccc(-n3c(=O)cc(C(F)(F)F)n(C)c3=O)cc12 (stereo not drawn) [Example 444, 1,2-Benzisothiazole-3-acetonitrile, 5-[3,6-dihydro-3-methyl-2,6-dioxo-4-(trifluoromethyl)-1(2H)-pyrimidinyl]-alpha-ethyl-] | 8.0 | 9.0 | 9.0 | 9.0 | 4.5 | 6.5 | 9.0 | 8.5 | 3.5 | 6.0 | 8.5 | 9.0 | 4.5 | 6.0 | 7.0 | 9.0 | 7.5 | 8.0 | 9.0 | 9.0 | CYPSE ([4]; 0.0320 kg/ha): 3.5; CYPSE ([4]; 0.0620 kg/ha): 9.0; CYPSE ([4]; 0.1250 kg/ha): 9.0; CYPSE ([4]; 0.2500 kg/ha): 9.0
